From US8921362B2, “6,7-dialkoxy quinazoline derivatives and methods of treating drug resistant and other tumors” (Natco Pharma Limited, priority 2008, dated 2014)

Tests used:
Assay in all cases: KinomeScan
Assay type in all cases: binding
Settings in all cases: read-out: % Ctrl @ 10000 nM
NDR2 = molecular target: T1, NDR2 (Homo sapiens, UniProt Q9Y2H1)
T1 construct: host or cells: T7 phage grown in E. coli host derived from BL21
Summary of the method: (§1)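 qPCR titer; phage-tagged kinase vs bead ligand; compound diluted from 40× DMSO stock; 2.5% DMSO control.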

ERK5 = molecular target: T2, ERK5 (Homo sapiens, UniProt Q13164)
T2 construct: purchased Ambit Biosciences Corp; host or cells: T7 phage in E. coli host derived from BL21
T2 sequence (Q13164 whole entry): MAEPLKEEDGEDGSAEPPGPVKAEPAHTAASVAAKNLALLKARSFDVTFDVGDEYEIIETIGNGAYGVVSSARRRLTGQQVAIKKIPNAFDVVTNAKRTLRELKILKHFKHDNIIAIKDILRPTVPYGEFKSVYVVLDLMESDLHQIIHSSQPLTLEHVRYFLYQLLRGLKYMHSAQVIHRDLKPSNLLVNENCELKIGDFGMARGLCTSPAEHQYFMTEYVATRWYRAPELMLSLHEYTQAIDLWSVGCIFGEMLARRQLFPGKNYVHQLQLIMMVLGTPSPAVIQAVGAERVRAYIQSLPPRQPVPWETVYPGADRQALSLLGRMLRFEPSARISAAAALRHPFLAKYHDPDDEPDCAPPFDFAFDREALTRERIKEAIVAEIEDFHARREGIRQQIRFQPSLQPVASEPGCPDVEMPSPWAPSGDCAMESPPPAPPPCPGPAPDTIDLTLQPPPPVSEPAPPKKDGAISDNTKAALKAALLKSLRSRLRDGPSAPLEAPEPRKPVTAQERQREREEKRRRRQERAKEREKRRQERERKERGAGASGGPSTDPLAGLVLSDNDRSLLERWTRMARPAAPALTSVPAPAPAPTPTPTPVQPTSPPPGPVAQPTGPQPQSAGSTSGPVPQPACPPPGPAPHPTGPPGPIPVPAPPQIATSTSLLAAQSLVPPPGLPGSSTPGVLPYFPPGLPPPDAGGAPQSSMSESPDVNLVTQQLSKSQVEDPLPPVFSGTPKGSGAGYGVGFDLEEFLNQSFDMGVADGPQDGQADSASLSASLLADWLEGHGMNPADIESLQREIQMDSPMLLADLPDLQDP
Summary of the method: as §1

EGFR(L861Q) = molecular target: T3, EGFR(L861Q) (Homo sapiens, UniProt P00533, L861Q)
T3 construct: purchased Ambit Biosciences Corp; host or cells: T7 phage in E. coli host derived from BL21
Summary of the method: as §1

GCN2(Kin.Dom.2.S808G) = molecular target: T4, GCN2(Kin.Dom.2.S808G) (Homo sapiens, UniProt Q9P2K8, S808G)
T4 construct: GCN2(KIN.DOM.2, S808G); host or cells: T7 phage in E. coli host derived from BL21
T4 sequence (Q9P2K8 590-1001 S808G limits assumed): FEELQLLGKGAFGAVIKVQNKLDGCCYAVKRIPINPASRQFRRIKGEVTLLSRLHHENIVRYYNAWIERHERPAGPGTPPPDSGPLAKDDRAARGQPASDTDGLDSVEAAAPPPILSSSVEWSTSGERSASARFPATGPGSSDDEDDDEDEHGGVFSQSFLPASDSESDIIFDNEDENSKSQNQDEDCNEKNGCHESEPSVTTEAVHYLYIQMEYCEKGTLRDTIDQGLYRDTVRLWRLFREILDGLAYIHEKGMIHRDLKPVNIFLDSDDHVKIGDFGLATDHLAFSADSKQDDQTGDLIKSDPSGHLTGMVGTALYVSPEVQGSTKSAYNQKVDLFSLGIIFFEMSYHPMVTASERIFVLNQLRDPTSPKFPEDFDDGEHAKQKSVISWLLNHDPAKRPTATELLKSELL
Summary of the method: as §1

[1] = molecular target: T5, RPS6KA5(Kin.Dom.-2-C-terminal) (Homo sapiens, UniProt O75582)
T5 construct: RPS6KA5(Kin.Dom.-2-C-terminal); host or cells: E. coli host derived from BL21, T7 phage display
Summary of the method: as §1

MARK2 = molecular target: T6, MARK2 (Homo sapiens, UniProt Q7KZI7)
T6 construct: host or cells: E. coli host derived from the BL21 strain, infected with T7 phage
T6 sequence (Q7KZI7 whole entry): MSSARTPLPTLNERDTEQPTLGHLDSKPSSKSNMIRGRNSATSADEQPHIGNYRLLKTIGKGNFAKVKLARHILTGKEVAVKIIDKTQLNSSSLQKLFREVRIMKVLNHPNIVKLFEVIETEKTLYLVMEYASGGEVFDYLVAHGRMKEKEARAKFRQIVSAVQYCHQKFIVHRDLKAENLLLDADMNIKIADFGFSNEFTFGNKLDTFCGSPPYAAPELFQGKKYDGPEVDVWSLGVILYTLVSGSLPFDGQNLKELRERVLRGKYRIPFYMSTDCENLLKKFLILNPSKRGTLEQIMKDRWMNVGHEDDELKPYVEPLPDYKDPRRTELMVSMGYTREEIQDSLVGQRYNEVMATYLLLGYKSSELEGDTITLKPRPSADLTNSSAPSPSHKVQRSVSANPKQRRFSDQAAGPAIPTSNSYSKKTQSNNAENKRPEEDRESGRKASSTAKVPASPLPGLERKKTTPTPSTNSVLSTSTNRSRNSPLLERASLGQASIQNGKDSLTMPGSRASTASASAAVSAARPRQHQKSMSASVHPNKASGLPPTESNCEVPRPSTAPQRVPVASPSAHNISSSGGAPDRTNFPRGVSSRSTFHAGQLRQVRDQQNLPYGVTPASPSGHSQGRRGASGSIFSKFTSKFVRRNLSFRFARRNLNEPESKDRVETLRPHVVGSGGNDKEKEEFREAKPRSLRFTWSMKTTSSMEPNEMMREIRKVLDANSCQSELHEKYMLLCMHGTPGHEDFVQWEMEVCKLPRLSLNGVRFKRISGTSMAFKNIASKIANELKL
Summary of the method: as §1

RIOK1 = molecular target: T7, RIOK1 (Homo sapiens, UniProt Q9BRS2)
T7 construct: host or cells: E. coli host derived from BL21, T7 phage display
Summary of the method: as §1

MAP3K4 = molecular target: T8, MAP3K4 (Homo sapiens, UniProt Q9Y6R4)
T8 construct: host or cells: E. coli host derived from the BL21 strain, infected with T7 phage
Summary of the method: as §1

SRC = molecular target: T9, SRC (Homo sapiens, UniProt P12931)
T9 construct: host or cells: T7 phage grown in E. coli (BL21-derived)
Summary of the method: as §1

MARK4 = molecular target: T10, MARK4 (Homo sapiens, UniProt Q96L34)
T10 construct: host or cells: E. coli host derived from the BL21 strain, infected with T7 phage
Summary of the method: as §1

PCTK1 = molecular target: T11, PCTK1 (Homo sapiens, UniProt Q00536)
T11 construct: host or cells: E. coli host derived from BL21, infected with T7 phage
Summary of the method: as §1

STK36 = molecular target: T12, STK36 (Homo sapiens, UniProt Q9NRP7)
T12 construct: host or cells: T7 phage grown in E. coli (BL21-derived)
Summary of the method: as §1

TXK = molecular target: T13, TXK (Homo sapiens, UniProt P42681)
T13 construct: host or cells: E. coli host derived from BL21, T7 phage
T13 sequence (P42681 whole entry): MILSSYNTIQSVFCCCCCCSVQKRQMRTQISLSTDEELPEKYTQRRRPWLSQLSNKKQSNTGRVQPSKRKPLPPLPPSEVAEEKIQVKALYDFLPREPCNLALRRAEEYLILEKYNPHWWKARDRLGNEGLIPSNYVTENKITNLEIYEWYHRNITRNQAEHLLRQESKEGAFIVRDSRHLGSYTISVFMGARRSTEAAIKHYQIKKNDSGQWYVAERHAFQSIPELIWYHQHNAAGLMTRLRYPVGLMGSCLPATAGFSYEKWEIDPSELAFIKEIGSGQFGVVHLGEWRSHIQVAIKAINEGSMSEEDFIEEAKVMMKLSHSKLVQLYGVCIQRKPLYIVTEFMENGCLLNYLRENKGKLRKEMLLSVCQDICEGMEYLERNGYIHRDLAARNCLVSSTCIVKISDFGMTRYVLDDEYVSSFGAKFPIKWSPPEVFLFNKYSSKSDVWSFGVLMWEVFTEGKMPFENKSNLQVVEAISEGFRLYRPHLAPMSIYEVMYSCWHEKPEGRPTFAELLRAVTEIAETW
Summary of the method: as §1

PKMYT1 = molecular target: T14, PKMYT1 (Homo sapiens, UniProt Q99640)
T14 construct: host or cells: T7 phage in E. coli host derived from BL21
T14 sequence (Q99640 whole entry): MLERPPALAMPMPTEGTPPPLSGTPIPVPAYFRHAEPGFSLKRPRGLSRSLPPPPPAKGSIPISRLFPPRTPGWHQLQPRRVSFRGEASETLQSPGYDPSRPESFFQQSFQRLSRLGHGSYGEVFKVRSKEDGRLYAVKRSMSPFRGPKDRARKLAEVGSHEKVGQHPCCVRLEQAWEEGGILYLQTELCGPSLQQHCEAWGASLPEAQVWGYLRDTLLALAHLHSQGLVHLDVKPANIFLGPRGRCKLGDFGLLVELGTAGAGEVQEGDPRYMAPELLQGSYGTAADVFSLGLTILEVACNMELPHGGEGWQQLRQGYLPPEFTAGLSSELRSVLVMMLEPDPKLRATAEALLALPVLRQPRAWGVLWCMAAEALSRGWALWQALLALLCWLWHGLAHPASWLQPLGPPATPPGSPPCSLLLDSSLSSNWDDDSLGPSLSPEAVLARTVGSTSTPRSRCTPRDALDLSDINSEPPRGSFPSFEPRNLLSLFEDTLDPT
Summary of the method: as §1

PDGFRB = molecular target: T15, PDGFRB (Homo sapiens, UniProt P09619)
T15 construct: host or cells: E. coli host derived from BL21, infected with T7 phage
Summary of the method: as §1

AKT1 = molecular target: T16, AKT1 (Homo sapiens, UniProt P31749)
T16 construct: host or cells: E. coli (BL21-derived), T7 phage lysate
Summary of the method: as §1

MAP4K5 = molecular target: T17, MAP4K5 (Homo sapiens, UniProt Q9Y4K4)
T17 construct: host or cells: E. coli host derived from the BL21 strain, infected with T7 phage
Summary of the method: as §1

ABL1(E255K) = molecular target: T18, ABL1(E255K) (Homo sapiens, UniProt P00519, E255K)
T18 construct: host or cells: E. coli (BL21-derived), T7 phage lysate
Summary of the method: as §1

MEK2 = molecular target: T19, MEK2 (Homo sapiens, UniProt P36507)
T19 construct: host or cells: E. coli host derived from the BL21 strain, infected with T7 phage
T19 sequence (P36507 whole entry): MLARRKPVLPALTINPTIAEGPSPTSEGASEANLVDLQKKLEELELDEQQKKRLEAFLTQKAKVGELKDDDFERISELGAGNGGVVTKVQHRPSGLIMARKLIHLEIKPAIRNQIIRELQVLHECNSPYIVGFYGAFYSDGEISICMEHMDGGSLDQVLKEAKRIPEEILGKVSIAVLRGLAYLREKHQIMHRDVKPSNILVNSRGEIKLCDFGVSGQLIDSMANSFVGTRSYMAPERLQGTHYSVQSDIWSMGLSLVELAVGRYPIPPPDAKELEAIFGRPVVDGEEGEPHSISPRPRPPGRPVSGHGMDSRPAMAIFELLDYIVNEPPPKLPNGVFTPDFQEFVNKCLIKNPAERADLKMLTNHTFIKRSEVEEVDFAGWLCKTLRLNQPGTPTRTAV
Summary of the method: as §1

WEE2 = molecular target: T20, WEE2 (Homo sapiens, UniProt P0C1S8)
T20 construct: host or cells: E. coli host derived from BL21, T7 phage
Summary of the method: as §1

PAK3 = molecular target: T21, PAK3 (Homo sapiens, UniProt O75914)
T21 construct: host or cells: E. coli host derived from BL21, infected with T7 phage
Summary of the method: as §1

ULK3 = molecular target: T22, ULK3 (Homo sapiens, UniProt Q6PHR2)
T22 construct: host or cells: E. coli host derived from BL21, T7 phage
T22 sequence (Q6PHR2 whole entry): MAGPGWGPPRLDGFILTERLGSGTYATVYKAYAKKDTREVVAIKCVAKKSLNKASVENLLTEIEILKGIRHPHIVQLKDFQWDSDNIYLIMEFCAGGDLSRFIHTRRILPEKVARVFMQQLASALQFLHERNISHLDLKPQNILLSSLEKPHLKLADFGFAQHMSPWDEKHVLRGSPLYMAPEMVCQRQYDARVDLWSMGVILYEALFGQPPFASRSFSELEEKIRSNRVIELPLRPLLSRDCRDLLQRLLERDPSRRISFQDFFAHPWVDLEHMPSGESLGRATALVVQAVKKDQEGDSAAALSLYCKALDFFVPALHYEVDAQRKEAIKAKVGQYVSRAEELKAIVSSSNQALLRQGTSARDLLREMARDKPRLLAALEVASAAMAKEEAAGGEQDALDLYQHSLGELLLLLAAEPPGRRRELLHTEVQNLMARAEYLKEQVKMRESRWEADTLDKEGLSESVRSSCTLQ
Summary of the method: as §1

YANK2 = molecular target: T23, YANK2 (Homo sapiens, UniProt Q9NY57)
T23 construct: host or cells: E. coli host derived from BL21, T7 phage
T23 sequence (Q9NY57 whole entry): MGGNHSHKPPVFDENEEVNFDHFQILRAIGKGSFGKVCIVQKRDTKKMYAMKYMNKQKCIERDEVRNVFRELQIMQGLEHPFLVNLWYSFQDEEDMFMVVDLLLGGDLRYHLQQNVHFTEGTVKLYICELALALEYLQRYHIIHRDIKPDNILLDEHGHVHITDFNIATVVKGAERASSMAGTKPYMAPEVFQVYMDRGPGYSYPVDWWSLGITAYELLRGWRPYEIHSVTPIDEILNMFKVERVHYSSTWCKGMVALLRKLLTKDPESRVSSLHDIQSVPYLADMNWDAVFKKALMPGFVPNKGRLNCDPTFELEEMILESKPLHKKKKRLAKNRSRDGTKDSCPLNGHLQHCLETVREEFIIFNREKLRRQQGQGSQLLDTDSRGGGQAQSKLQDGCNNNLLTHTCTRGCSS
Summary of the method: as §1

DAPK2 = molecular target: T24, DAPK2 (Homo sapiens, UniProt Q9UIK4)
T24 construct: purchased Ambit Biosciences Corp (KinomeScan); host or cells: T7 phage in E. coli host derived from BL21
Summary of the method: as §1

PYK2 = molecular target: T25, PYK2 (Homo sapiens, UniProt Q14289)
T25 construct: host or cells: E. coli host derived from BL21, T7 phage display
Summary of the method: as §1

TGFBR2 = molecular target: T26, TGFBR2 (Homo sapiens, UniProt P37173)
T26 construct: host or cells: T7 phage grown in E. coli (BL21-derived)
Summary of the method: as §1

PKN2 = molecular target: T27, PKN2 (Homo sapiens, UniProt Q16513)
T27 construct: host or cells: T7 phage in E. coli host derived from BL21
Summary of the method: as §1

MAPKAPK2 = molecular target: T28, MAPKAPK2 (Homo sapiens, UniProt P49137)
T28 construct: host or cells: E. coli host derived from the BL21 strain, infected with T7 phage
Summary of the method: as §1

PIP5K2B = molecular target: T29, PIP5K2B (Homo sapiens, UniProt P78356)
T29 construct: host or cells: T7 phage in E. coli host derived from BL21
Summary of the method: as §1

ABL1(F317L) = molecular target: T30, ABL1(F317L) (Homo sapiens, UniProt P00519, F317L)
T30 construct: host or cells: E. coli (BL21-derived), T7 phage lysate
Summary of the method: as §1

TRKB = molecular target: T31, TRKB (Homo sapiens, UniProt Q16620)
T31 construct: host or cells: E. coli host derived from BL21, T7 phage
Summary of the method: as §1

STK16 = molecular target: T32, STK16 (Homo sapiens, UniProt O75716)
T32 construct: host or cells: T7 phage grown in E. coli (BL21-derived)
Summary of the method: as §1

T1 sequence (Q9Y2H1 whole entry): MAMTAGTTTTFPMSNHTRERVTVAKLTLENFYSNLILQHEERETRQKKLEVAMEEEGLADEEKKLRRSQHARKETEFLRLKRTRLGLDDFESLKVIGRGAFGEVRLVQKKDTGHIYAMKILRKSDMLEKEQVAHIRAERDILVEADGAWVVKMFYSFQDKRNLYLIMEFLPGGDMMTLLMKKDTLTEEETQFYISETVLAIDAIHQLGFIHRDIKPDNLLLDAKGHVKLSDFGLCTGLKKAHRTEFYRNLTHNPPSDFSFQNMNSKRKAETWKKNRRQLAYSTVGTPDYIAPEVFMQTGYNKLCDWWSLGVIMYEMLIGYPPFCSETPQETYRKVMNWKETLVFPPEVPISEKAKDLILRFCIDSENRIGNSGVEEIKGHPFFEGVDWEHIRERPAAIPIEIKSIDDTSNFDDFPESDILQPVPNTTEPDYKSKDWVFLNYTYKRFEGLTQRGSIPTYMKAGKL

C#Cc1cccc(Nc2ncnc3cc(OC)c(OCCCN4CCOCC4)cc23)c1 [NRC-2694, N-(3-ethynylphenyl)-7-methoxy-6-[3-(4-morpholinyl)propoxy]-4-quinazolinamine]
remaining binding at 10 µM (NDR2): 74% | remaining binding at 10 µM (ERK5): 90% | remaining binding at 10 µM (EGFR(L861Q)): 0% | remaining binding at 10 µM (GCN2(Kin.Dom.2.S808G)): 12% | remaining binding at 10 µM [1]: 57% | remaining binding at 10 µM (MARK2): 70% | remaining binding at 10 µM (RIOK1): 36% | remaining binding at 10 µM (MAP3K4): 53% | remaining binding at 10 µM (SRC): 24% | remaining binding at 10 µM (MARK4): 100% | remaining binding at 10 µM (PCTK1): 100% | remaining binding at 10 µM (STK36): 4.6% | remaining binding at 10 µM (TXK): 39% | remaining binding at 10 µM (PKMYT1): 74% | remaining binding at 10 µM (PDGFRB): 10% | remaining binding at 10 µM (AKT1): 100% | remaining binding at 10 µM (MAP4K5): 23% | remaining binding at 10 µM (ABL1(E255K)): 80% | remaining binding at 10 µM (MEK2): 44% | remaining binding at 10 µM (WEE2): 53% | remaining binding at 10 µM (PAK3): 55% | remaining binding at 10 µM (ULK3): 62% | remaining binding at 10 µM (YANK2): 68% | remaining binding at 10 µM (DAPK2): 61% | remaining binding at 10 µM (PYK2): 71% | remaining binding at 10 µM (TGFBR2): 86% | remaining binding at 10 µM (PKN2): 31% | remaining binding at 10 µM (MAPKAPK2): 90% | remaining binding at 10 µM (PIP5K2B): 49% | remaining binding at 10 µM (ABL1(F317L)): 33% | remaining binding at 10 µM (TRKB): 73% | remaining binding at 10 µM (STK16): 100%
